Measurements reported in PMC5430831 (Acta Pharmaceutica Sinica. B, 2017).
Like-named read-outs stand apart in the source and are kept apart here. Blank lines part the entries; values can stand above or below the compound they belong to.

Experiments:
VEGFR1 = VEGFR1 (Homo sapiens, UniProt P17948); assay: Radioactive filter binding kinase assay, VEGFR1; assay type: biochemical
CHK2 = CHK2 (Homo sapiens, UniProt O96017); assay: Radioactive filter binding kinase assay, CHK2; assay type: biochemical
Sequence of CHK2 (O96017 whole entry, species assumed): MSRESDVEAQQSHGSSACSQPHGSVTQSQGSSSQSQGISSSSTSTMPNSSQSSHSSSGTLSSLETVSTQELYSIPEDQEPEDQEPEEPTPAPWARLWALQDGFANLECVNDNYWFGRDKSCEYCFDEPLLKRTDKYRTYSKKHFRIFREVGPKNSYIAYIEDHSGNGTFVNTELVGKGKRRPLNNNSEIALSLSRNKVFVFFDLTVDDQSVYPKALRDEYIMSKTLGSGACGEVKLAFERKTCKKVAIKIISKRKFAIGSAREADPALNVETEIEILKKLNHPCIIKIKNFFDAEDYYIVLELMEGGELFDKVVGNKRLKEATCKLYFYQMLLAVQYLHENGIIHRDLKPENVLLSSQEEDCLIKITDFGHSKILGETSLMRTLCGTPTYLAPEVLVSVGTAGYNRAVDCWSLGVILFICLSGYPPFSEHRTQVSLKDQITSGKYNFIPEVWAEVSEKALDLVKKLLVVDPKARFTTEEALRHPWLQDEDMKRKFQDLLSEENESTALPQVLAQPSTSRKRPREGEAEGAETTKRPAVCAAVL

HL-60 cells [1] = assay: LDH release assay; assay type: cell-based, Human
HL-60 cells [2] = assay: Cell cycle analysis by flow cytometry; assay type: cell-based, Human
HL-60 cells [3] = assay: Annexin V-FITC/propidium iodide labeling, confocal imaging; assay type: cell-based, Human; details: HL-60, 5 and 10 μmol/L, 48 h
HL-60 cells [4] = assay: Mitochondrial membrane potential measurement; assay type: cell-based, Human; details: HL-60, 10 μmol/L, JC-1, from 6 h
caspase-3 = assay: Caspase-3 colorimetric activity assay; assay type: cell-based, Human; details: HL-60, 10 μmol/L, 48 h
HL-60 cells [5] = assay: Drug accumulation assay; assay type: cell-based, Human; details: HL-60, 2 h incubation, emission 446 nm
MOLT-4 cells = MOLT-4 cells ref 16; cited from earlier work
MNK2 = MNK2 (Homo sapiens, UniProt Q9HBH9); assay: Radioactive filter binding kinase assay, MNK2; details: read-out: percent inhibition MNK2
Sequence of MNK2 (Q9HBH9 whole entry, species assumed): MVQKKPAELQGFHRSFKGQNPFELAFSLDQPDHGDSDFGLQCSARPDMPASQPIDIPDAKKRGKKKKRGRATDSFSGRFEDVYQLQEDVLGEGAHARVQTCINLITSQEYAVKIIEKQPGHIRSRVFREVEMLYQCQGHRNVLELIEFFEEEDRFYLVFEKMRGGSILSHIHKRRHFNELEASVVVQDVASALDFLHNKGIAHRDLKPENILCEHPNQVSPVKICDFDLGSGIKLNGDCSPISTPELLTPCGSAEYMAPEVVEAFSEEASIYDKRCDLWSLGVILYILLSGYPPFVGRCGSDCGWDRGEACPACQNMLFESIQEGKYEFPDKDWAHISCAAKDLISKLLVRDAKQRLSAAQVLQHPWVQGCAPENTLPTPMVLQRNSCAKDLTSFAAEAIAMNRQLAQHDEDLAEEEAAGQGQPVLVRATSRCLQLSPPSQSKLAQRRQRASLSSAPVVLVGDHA

Aurora B = Aurora B (Homo sapiens, UniProt Q96GD4); assay: Radioactive filter binding kinase assay, Aurora B; details: read-out: percent inhibition Aurora B
Sequence of Aurora B (Q96GD4 whole entry): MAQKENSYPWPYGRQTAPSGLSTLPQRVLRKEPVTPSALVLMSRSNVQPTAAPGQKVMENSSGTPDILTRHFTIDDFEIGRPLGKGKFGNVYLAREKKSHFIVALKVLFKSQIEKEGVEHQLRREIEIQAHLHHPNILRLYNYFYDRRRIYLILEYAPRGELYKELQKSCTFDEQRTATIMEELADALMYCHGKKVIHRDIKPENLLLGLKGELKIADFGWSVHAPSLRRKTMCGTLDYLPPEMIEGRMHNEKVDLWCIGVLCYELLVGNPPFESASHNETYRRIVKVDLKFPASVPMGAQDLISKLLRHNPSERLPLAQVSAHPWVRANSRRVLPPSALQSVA

[6] = read-out: IC50 VEGFR1, mean±SD (n=3)
[7] = read-out: IC50 CHK2, mean±SD (n=3)

Sequence of VEGFR1 (P17948 27-1338, species assumed): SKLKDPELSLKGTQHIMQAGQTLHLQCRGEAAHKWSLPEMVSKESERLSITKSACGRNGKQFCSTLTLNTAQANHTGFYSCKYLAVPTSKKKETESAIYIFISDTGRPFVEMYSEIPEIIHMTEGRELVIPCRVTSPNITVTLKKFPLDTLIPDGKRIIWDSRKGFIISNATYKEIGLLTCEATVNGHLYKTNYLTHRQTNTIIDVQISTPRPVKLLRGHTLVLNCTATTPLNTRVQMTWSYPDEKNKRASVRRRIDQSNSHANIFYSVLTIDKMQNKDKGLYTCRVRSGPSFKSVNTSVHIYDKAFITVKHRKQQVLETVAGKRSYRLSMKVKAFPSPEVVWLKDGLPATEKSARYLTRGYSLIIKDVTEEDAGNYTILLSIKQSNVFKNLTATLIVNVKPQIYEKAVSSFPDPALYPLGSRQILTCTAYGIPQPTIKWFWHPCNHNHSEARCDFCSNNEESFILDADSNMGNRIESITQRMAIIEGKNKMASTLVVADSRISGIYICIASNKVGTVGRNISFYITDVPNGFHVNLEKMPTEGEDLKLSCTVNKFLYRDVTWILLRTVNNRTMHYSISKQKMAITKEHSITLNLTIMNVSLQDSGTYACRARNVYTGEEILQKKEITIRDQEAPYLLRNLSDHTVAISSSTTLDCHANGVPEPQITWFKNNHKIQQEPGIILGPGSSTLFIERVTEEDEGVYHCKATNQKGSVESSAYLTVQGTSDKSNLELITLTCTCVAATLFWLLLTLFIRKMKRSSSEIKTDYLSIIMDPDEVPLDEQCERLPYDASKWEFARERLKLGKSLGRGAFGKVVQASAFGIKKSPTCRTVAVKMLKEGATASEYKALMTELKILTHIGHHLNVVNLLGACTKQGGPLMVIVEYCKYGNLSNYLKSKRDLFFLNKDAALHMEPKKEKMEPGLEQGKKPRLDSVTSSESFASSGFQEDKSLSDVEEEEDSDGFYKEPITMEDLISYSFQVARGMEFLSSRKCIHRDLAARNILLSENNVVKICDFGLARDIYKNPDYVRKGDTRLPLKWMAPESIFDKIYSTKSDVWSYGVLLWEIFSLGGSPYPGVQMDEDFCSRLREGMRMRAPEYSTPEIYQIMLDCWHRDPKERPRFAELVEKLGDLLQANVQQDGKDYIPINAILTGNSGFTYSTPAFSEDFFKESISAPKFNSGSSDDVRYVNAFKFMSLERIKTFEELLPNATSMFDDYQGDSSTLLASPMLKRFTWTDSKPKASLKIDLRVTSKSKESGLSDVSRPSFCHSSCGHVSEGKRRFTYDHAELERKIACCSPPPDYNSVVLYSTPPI

SMILES: COC(=O)[C@@]1(O)C[C@H]2O[C@]1(C)n1c3ccccc3c3c4c(c5c6ccccc6n2c5c31)C(=O)NC4 [K252a]
IC50 (VEGFR1; [6]): 0.013 ± 0.002 µM
IC50 (CHK2; [7]): 0.023 ± 0.005 µM

IC50 (VEGFR1): 0.335 ± 0.074 µM
IC50 (CHK2): 0.304 ± 0.094 µM
SMILES: Oc1c2ccccc2c2c3c(cccc13)N=N2 [SP600125]

IC50 (VEGFR1): 0.042 ± 0.012 µM
IC50 (CHK2): 0.081 ± 0.019 µM
SMILES: O=C1Nc2ccccc2/C1=C1/Nc2ccccc2C1=O [Indirubin]

IC50 (VEGFR1): 0.779 ± 0.173 µM
SMILES: O=c1c(O)c(-c2cc(O)c(O)c(O)c2)oc2cc(O)cc(O)c12 [Myricetin]

activity at 1 µM (VEGFR1; read-out: percent inhibition VEGFR1): 44%
activity at 1 µM (CHK2; read-out: percent inhibition CHK2): 40%
activity at 1 µM (MNK2): 79%
activity at 1 µM (Aurora B): 74%
SMILES: CCCCNc1ncnc2c1sc1nc3ccccc3cc12 [BPTQ, 4-butylaminopyrimido[4′,5′:4,5]thieno(2,3-b)quinoline]
LDH release (HL-60 cells [1]; HL-60, 10 μmol/L): did not induce LDH release
LDH release (HL-60 cells [1]; HL-60, 50 μmol/L): increased the release of LDH
LDH release (HL-60 cells [1]; HL-60, 100 μmol/L): increased the release of LDH
Sub G0/G1 cells (HL-60 cells [2]; HL-60, 10 μmol/L, 48 h): 47%
Cell cycle arrest (HL-60 cells [2]; HL-60, 48 h): did not induce any cell cycle arrest
Annexin V-FITC / propidium iodide staining (apoptosis) (HL-60 cells [3]): confirming the induction of apoptosis
Mitochondrial membrane potential (ΔΨm) (HL-60 cells [4]): striking fall in the membrane potential
Increase in caspase-3 activity relative to control (caspase-3): about 2 fold
Intracellular drug uptake (HL-60 cells [5]): dose dependent increase in the intracellular drug uptake
Cell cycle effect (MOLT-4 cells): cell cycle arrest was observed

IC50 (VEGFR1; [6]): 0.12 ± 0.014 µM
IC50 (CHK2; [7]): 1.07 ± 0.21 µM
SMILES: Cn1cc(C2=C(c3cn(CCCSC(=N)N)c4ccccc34)C(=O)NC2=O)c2ccccc21 [Ro318220]
